Test results as given in patent US6596707B2, “Monovalent saccharides and uses thereof” (priority 2001, dated 2003).

How the values were obtained:
[1] = target: Shiga-like toxin I (SLT I) (Bacteriophage H30, UniProt P69178)
[2] = Pharmacokinetics of globotriose in mice after IV or oral administration
[3] = Toxicity of globotriose administered to mice (previous pharmacokinetic studies)
[4] = target: Shiga-like toxin II (SLT II) (Escherichia phage 933W, UniProt P09386); type: cell-based, E. coli O157:H7
Chain of Shiga-like toxin II (SLT II) (P09386 whole entry, looked up): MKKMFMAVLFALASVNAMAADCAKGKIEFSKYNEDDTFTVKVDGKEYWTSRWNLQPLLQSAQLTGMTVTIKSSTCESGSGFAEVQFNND

Chain of Shiga-like toxin I (SLT I) (P69178 whole entry, looked up): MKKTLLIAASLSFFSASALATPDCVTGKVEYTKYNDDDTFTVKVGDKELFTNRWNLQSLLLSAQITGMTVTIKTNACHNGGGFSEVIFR

## OC[C@H]1O[C@H](O[C@@H]2[C@H](O)[C@@H](O)[C@H](O[C@H]3[C@H](O)[C@@H](O)C(O)O[C@@H]3CO)O[C@@H]2CO)[C@H](O)[C@@H](O)[C@H]1O (stereo partly drawn) [globotriose, galactose α1,4 galactose β1,4 glucose]
[1]
  inhibition of cell death from SLT I: 52%
  reduction of cytotoxicity (SLT I), toxin pre-attached: 33%
[2]; IV administered
  clearance kinetics: bi-exponential clearance kinetics
  time over which excreted through the kidneys: > 24 h
[2]; orally administered
  bioavailable (oral dose crossed into circulation): approximately 10%
  excreted in the urine, time post-dose: up to 48 hours
  fate of the majority of orally administered dose: excreted into the feces unmetabolized
  kinetics: bi-exponential kinetics
[3]; intravenously 333 mg/kg
  toxic effects after intravenous administration: no toxic effects
[3]; orally 3333 mg/kg
  toxic effects after oral administration: no toxic effects
[4]
  inhibition of cell death from SLT II: 8%
